{
  "source": "patent US20240041830A1",
  "about": "“CIRCULATING BIOMARKERS OF RESPONSE TO PD-1/PD-L1 BLOCKADE AND GSK-3 INHIBITION” (Brown University, priority 2022, published 2024)",
  "test_system": "tumor biopsies (colorectal cancer, pancreatic cancer)",
  "assay": "GeoMx Digital Spatial Profiling of patient tumor biopsies",
  "format": "in vivo, human",
  "excerpt": "Digital spatial profiling. An Agilent Technologies hybridization oven was used for baking tissue onto slides (Agilent, Santa Clara, CA, USA). A NanoString GeoMx® Digital Spatial Profiler (DSP) instrument (NanoString, Seattle, WA, USA) was used to scan slides, identify regions of interest (ROIs), and collect photocleavable barcodes according to manufacturer instructions. A custom panel was designed to include the following proteins: Ms IgG1, Ms IgG2a, Rb IgG, GAPDH, Histone H3, S6, Beta-2-microglobulin, CD31, CD45, Ki-67, ARG1, CD11 b, CD11 c, CD14, CD163, CD39, CD40, CD68, HLA-DR, GZMB, CD20, CD3, CD34, CD4, CD56, CD66b, CD8, Foxp3, Fibronectin, 4-1BB, B7-H3, CTLA4, GITR, IDO1, LAG3, OX40L, STING, Tim-3, VISTA, Bcl-2, ER-α, EpCAM, Her2, MART1, NY-ESO-1, PR, PTEN, PanCk, SMA, CD127, CD25, CD27, CD44, CD45RO, CD80, ICOS, PD-1, PD-L1, and PD-L2. An Eppendorf MasterCycler Gradient Thermal Cycler was used to generate the Illumina sequencing libraries from the photocleaved tags. (Eppendorf, Hamburg, Germany). An Agilent Fragment Analyzer (RRID: SCR_019417) was used for library size distribution analysis with a high-sensitivity NGS Fragment Kit (Cat #DNF-474-0500, Agilent, Santa Clara, CA, USA). qPCR for quantification was run using an Illumina-compatible KAPA Library Quantification Kits (ROX Low) (cat #KK4873) on an Applied Biosystems ViiA 7 Real-Time qPCR/PCR Thermal Cycler System (Applied Biosystems, San Francisco, CA, USA) and was analyzed using QuantStudio software (RRID: SCR_018712). Sequencing was performed using a NextSeq 500/550 High Output Kit v2.5 (75 Cycles) kit (cat #20024906) on an Illumina Sequencing NextSeq 550 System (RRID: SCR_016381, Illumina, San Diego, CA, USA). The initial annotated dataset went through quality control (QC) to check if housekeeper genes and background (isotype) control molecules were themselves correlated with the predictors of interest. Every ROI was tested for raw sequencing reads (segments with <1000 raw reads were removed), % sequencing saturation, defined as (1-deduplicated reads/aligned reads)%, segments below ˜50% were not analyzed), and nuclei count per segment, for which >100 nuclei per segment is generally recommended. Both immunoglobulins (lgGs) and housekeeper genes were highly correlated with one another. Signal to noise (SNR) ratio was calculated using background probes and all probes were detected above the background in at least one ROI. data were normalized based on background IgG expression and all normalization factors were well distributed. Data analysis and visualization were generated using R (RRID: SCR_001905; R Development Core Team, 2020).\nPanCK+ expression of immunosuppressive CD39 negatively correlated with time-on-treatment (Tx time) while CD45+ expression of monocyte/macrophage marker CD163 positively correlated with Tx time. The inventors used GeoMx Digital Spatial Profiling (DSP) technology to profile the expression of fifty-nine proteins in tumor biopsies (N=12) from patients treated with elraglusib (N=7). A total of 42% (N=5) of the tumor biopsies analyzed were collected near or before treatment start (pre-treatment) and 58% (N=7) of the biopsies analyzed were collected from post-treatment (average time-on-treatment (Tx time) at post-treatment biopsy: 270 days) (FIG. 7A). Primary tumor types included colorectal cancer (N=4, 33%) and pancreatic cancer (N=8, 67%), while metastatic biopsy tissue sites included lung (N=2, 17%), liver (N=7, 58%), rectum (N=2, 17%), and pleura (N=1, 8%). the inventors analyzed five paired tumor biopsies ([…], 83%), and two unpaired biopsies (N=2 slides total, 17%). Half (N=6, 50%) of the tumor sections were needle biopsies and half (N=6, 50%) were tissue biopsies. All patients included in this analysis were considered responders based on the definition used in the Phase 1 trial that treatment response is equal to disease control greater than 16 weeks. […]",
  "key": {"[1]": {"conditions": "CD45+ regions, post- vs pre-treatment biopsies"}, "[2]": {"conditions": "tumor-infiltrating CD45+ segments, post- vs pre-treatment"}},
  "data": [
    {"compound": "Cn1cc(C2=C(c3coc4ccc(F)cc34)C(=O)NC2=O)c2cc3c(cc21)OCO3", "note": "[elraglusib]", "values": [
      {"measurement": "CD11 b protein expression", "setting": "[1]", "value": "decreased"},
      {"measurement": "CD11c protein expression", "setting": "[1]", "value": "decreased"},
      {"measurement": "CD40 protein expression", "setting": "[1]", "value": "decreased"},
      {"measurement": "CD66b protein expression", "setting": "[1]", "value": "decreased"},
      {"measurement": "CD68 protein expression", "setting": "[1]", "value": "decreased"},
      {"measurement": "CD80 protein expression", "setting": "[1]", "value": "decreased"},
      {"measurement": "IDO1 protein expression", "setting": "[1]", "value": "decreased"},
      {"measurement": "LAG3 protein expression", "setting": "[1]", "value": "decreased"},
      {"measurement": "PD-1 protein expression", "setting": "[1]", "value": "decreased"},
      {"measurement": "PD-L1 protein expression", "setting": "[1]", "value": "decreased"},
      {"measurement": "PD-L2 protein expression", "setting": "[1]", "value": "decreased"},
      {"measurement": "VISTA protein expression", "setting": "[1]", "value": "decreased"},
      {"measurement": "PD-L1 expression", "setting": "PanCK+ segments, post- vs pre-treatment biopsies", "value": "downregulation"},
      {"measurement": "ARG1 protein expression", "setting": "[2]", "value": "reduced"},
      {"measurement": "B2M protein expression", "setting": "[2]", "value": "reduced"},
      {"measurement": "B7-H3 protein expression", "setting": "[2]", "value": "elevated"},
      {"measurement": "CD11c protein expression", "setting": "[2]", "value": "reduced"},
      {"measurement": "CD34 protein expression", "setting": "[2]", "value": "reduced"},
      {"measurement": "CD44 protein expression", "setting": "[2]", "value": "reduced"},
      {"measurement": "CD45R0 protein expression", "setting": "[2]", "value": "reduced"},
      {"measurement": "CD56 protein expression", "setting": "[2]", "value": "reduced"},
      {"measurement": "CD66b protein expression", "setting": "[2]", "value": "reduced"},
      {"measurement": "CD68 protein expression", "setting": "[2]", "value": "reduced"},
      {"measurement": "CD80 protein expression", "setting": "[2]", "value": "reduced"},
      {"measurement": "CD127 protein expression", "setting": "[2]", "value": "elevated"},
      {"measurement": "CTLA4 protein expression", "setting": "[2]", "value": "elevated"},
      {"measurement": "GITR protein expression", "setting": "[2]", "value": "reduced"},
      {"measurement": "HLA-DR protein expression", "setting": "[2]", "value": "reduced"},
      {"measurement": "IDO1 protein expression", "setting": "[2]", "value": "reduced"},
      {"measurement": "Ki-67 protein expression", "setting": "[2]", "value": "reduced"},
      {"measurement": "OX4OL protein expression", "setting": "[2]", "value": "elevated"},
      {"measurement": "PD-1 protein expression", "setting": "[2]", "value": "reduced"},
      {"measurement": "PD-L1 protein expression", "setting": "[2]", "value": "reduced"},
      {"measurement": "PD-L2 protein expression", "setting": "[2]", "value": "reduced"},
      {"measurement": "PTEN protein expression", "setting": "[2]", "value": "reduced"},
      {"measurement": "VISTA protein expression", "setting": "[2]", "value": "reduced"}
    ]}
  ]
}
